Laboratory results reported in BindingDB's records for doi:10.1016/j.bmc.2014.05.025 (University of California, 2014).

Target: T1, Polyunsaturated fatty acid lipoxygenase ALOX12 (Homo sapiens, UniProt P18054)
T1 sequence (P18054 whole entry): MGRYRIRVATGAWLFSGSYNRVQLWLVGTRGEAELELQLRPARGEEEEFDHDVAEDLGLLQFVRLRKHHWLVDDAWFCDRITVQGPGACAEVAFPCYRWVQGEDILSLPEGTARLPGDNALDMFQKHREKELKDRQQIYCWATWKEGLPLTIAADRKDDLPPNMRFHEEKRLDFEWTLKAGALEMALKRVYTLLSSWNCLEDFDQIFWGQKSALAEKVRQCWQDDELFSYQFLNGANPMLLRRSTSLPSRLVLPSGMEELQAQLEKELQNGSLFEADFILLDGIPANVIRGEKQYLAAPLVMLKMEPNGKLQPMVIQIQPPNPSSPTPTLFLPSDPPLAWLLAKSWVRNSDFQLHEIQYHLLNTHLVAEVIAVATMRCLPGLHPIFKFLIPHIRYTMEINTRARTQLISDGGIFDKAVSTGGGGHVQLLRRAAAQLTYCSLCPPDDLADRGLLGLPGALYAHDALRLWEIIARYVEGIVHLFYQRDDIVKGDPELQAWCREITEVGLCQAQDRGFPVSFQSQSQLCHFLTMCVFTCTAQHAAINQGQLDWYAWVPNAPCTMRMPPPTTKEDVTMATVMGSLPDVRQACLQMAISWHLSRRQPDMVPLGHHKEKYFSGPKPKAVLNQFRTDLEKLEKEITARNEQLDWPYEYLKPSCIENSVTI
Assay: Mixed type inhibition of human platelet 12-lipoxygenase assessed as equilibrium inhibitor constant of dissociation from enzyme by measuring 12-HpETE formation in presence of 0.01% Triton-X-100 by Dixon plot based steady-state inhibition kinetics assay

Ki: 0.087 µM
SMILES: CCCCCC(=O)C=CC=CC/C=C\C/C=C\CCCC(=O)O [(5Z,8Z,11Z,13E)-15-oxoicosa-5,8,11,13-tetraenoic acid]
